Experimental data from ChEMBL document CHEMBL5370544, “Design, synthesis, and biological evaluation of 1-styrenyl isoquinoline derivatives for anti-hepatocellular carcinoma activity and effect on mitochondria” (Eur J Med Chem, 2023).
The source made the active and inactive calls.

Experiments:
Huh-7 [1] = experiment: Induction of cell cycle arrest in human Huh-7 cells assessed as decrease in CDK1 expression incubated for 48 hrs by Western blotting analysis; type: functional, cell-based; conditions: dose 0.9-8.1 µM
Huh-7 [2] = experiment: Induction of cell cycle arrest in human Huh-7 cells assessed as increase in accumulation of cells at G2/M phase incubated for 24 hrs by propidium iodide staining based flow cytometry analysis; type: functional; conditions: dose 0.9-8.1 µM
Huh-7 [3] = experiment: Induction of apoptosis in human Huh-7 cells assessed as increase in proportion of late apoptosis at 0.9 to 8.1 uM incubated for 24 hrs by Annexin V-AbFluor 488/propidium iodide staining based flow cytometry analysis; type: functional, cell-based; conditions: dose 0.9-8.1 µM
Huh-7 [4] = experiment: Inhibition of cell migration in human Huh-7 cells at 0.55 to 2.2 uM incubated for 24 hrs by crystal violet staining based transwell migration assay; type: functional; conditions: dose 0.55-2.2 µM
Huh-7 [5] = experiment: Antimigratory activity against human Huh-7 cells assessed as up-regulation of E-cadherin expression at 0.55 to 2.2 uM incubated 24 hrs by Western blotting analysis; type: functional, cell-based; conditions: dose 0.55-2.2 µM
SK-HEP1 [6] = experiment: Induction of mitochondrial membrane potential depolarization in human SK-HEP1 cells incubated for 24 hrs by TMRE staining based flow cytometry analysis; type: functional, cell-based; conditions: dose 1.5-13.5 µM
SK-HEP1 [7] = experiment: Induction of apoptosis in human SK-HEP1 cells assessed as cell shrinkage at 1.5 to 13.5 uM incubated for 24 hrs by giemsa staining based micrscopic analysis; type: functional; conditions: dose 1.5-13.5 µM
[8] = Acute toxicity in BALB/c mouse assessed as mouse survival at 650 mg/kg, ip measured after 14 days; type: organism-based; conditions: in vivo, 336 h, time 14 day
SK-HEP1 [9] = experiment: Antiproliferative activity against human SK-HEP1 cells assessed as inhibition of cell growth measured after 72 hrs by MTT assay; type: functional, cell-based
SK-HEP1 [10] = experiment: Inhibition of cell migration in human SK-HEP1 cells incubated for 24 hrs by scratch wound healing assay; type: functional, cell-based; conditions: dose 1.25-5 µM
Huh-7 [11] = experiment: Induction of apoptosis in human Huh-7 cells assessed as increase in proportion of early apoptosis at 0.9 to 8.1 uM incubated for 24 hrs by Annexin V-AbFluor 488/propidium iodide staining based flow cytometry analysis; type: functional, cell-based; conditions: dose 0.9-8.1 µM
SK-HEP1 [12] = experiment: Induction of apoptosis in human SK-HEP1 cells assessed as increase in proportion of late apoptosis at 1.5 to 13.5 uM incubated for 24 hrs by Annexin V-AbFluor 488/propidium iodide staining based flow cytometry analysis; type: functional, cell-based; conditions: dose 1.5-13.5 µM
Huh-7 [13] = experiment: Antitumor activity against human Huh-7 cells xenografted in ip dosed BALB/c mouse assessed as reduction in tumor weight measured after 14 days; type: functional, organism-based; conditions: dose 15-30 mg/kg, time 14.0 day
Huh-7 [14] = experiment: Antitumor activity against human Huh-7 cells xenografted in BALB/c mouse assessed as tumor growth inhibition at 15 mg/kg, ip qd measured after 14 days; type: functional; conditions: Huh-7, 336 h, time 14 day, read-out: TGI
Huh-7 [15] = experiment: Antiinvasive activity in human Huh-7 cells assessed as reduction in number of invasive cells at 0.55 to 2.2 uM incubated for 24 hrs by transwell invasion assay; type: functional, cell-based; conditions: dose 0.55-2.2 µM
SK-HEP1 [16] = experiment: Induction of apoptosis in human SK-HEP1 cells assessed as increase in cleaved caspase-3 expression at 1.5 to 13.5 uM incubated for 48 hrs by Western blotting analysis; type: functional, cell-based; conditions: dose 1.5-13.5 µM
Huh-7 [17] = experiment: Induction of apoptosis in human Huh-7 cells assessed as nuclear membrane breakdown at 0.9 to 8.1 uM incubated for 24 hrs by giemsa staining based micrscopic analysis; type: functional, cell-based; conditions: dose 0.9-8.1 µM
SK-HEP1 [18] = experiment: Induction of cell cycle arrest in human SK-HEP1 cells assessed as decrease in CDK1 expression incubated for 48 hrs by Western blotting analysis; type: functional, cell-based; conditions: dose 1.5-13.5 µM
SK-HEP1 [19] = experiment: Induction of apoptosis in human SK-HEP1 cells assessed as chromatin condensation at 1.5 to 13.5 uM incubated for 24 hrs by giemsa staining based micrscopic analysis; type: functional, cell-based; conditions: dose 1.5-13.5 µM
[20] = target: Serine/threonine-protein kinase mTOR (Homo sapiens) (UniProt P42345); experiment: Inhibition of mTOR signalling pathway in human Huh-7 cells assessed as inhibition of mTOR phosphorylation at 0.9 to 8.1 uM measured after 48 hrs by Western blotting analysis; type: cell-based; conditions: dose 0.9-8.1 µM
Huh-7 [21] = experiment: Antitumor activity against human Huh-7 cells xenografted in ip dosed BALB/c mouse assessed as reduction in tumor volume measured after 14 days; type: functional, organism-based; conditions: dose 15-30 mg/kg, time 14.0 day
Huh-7 [22] = experiment: Inhibition of cell migration in human Huh-7 cells incubated for 24 hrs by scratch wound healing assay; type: functional, cell-based; conditions: dose 0.55-2.2 µM
Huh-7 [23] = experiment: Induction of apoptosis in human Huh-7 cells assessed as inhibition of Bcl-2 expression incubated for 48 hrs by Western blotting analysis; type: functional, cell-based; conditions: dose 0.9-8.1 µM
Huh-7 [24] = experiment: Antitumor activity against human Huh-7 cells xenografted in BALB/c mouse assessed as reduction in tumor weight at 15 to 30 mg/kg, ip qd; type: functional, organism-based; conditions: dose 15-30 mg/kg, time 14.0 day, TDE = time-dependent effect
Huh-7 [25] = experiment: Induction of apoptosis in human Huh-7 cells assessed as chromatin condensation at 0.9 to 8.1 uM incubated for 24 hrs by giemsa staining based micrscopic analysis; type: functional, cell-based; conditions: dose 0.9-8.1 µM
Huh-7 [26] = experiment: Induction of cell cycle arrest in human Huh-7 cells assessed as decrease in cyclin A expression incubated for 48 hrs by Western blotting analysis; type: functional, cell-based; conditions: dose 0.9-8.1 µM
SK-HEP1 [27] = experiment: Antiproliferative activity against human SK-HEP1 cells assessed as reduction in ratio of EdU-positive cells measured after 24 hrs by EdU incorporation assay; type: functional, cell-based; conditions: dose 1.25-5 µM
Huh-7 [28] = experiment: Induction of apoptosis in human Huh-7 cells assessed as increase in cleaved caspase-3 expression at 0.9 to 8.1 uM incubated for 48 hrs by Western blotting analysis; type: functional, cell-based; conditions: dose 0.9-8.1 µM
Huh-7 [29] = experiment: Induction of cell cycle arrest in human Huh-7 cells assessed as decrease in cyclin B1 expression incubated for 48 hrs by Western blotting analysis; type: functional, cell-based; conditions: dose 0.9-8.1 µM
Huh-7 [30] = experiment: Antiproliferative activity against human Huh-7 cells assessed as inhibition of cell growth measured after 72 hrs by MTT assay; type: functional, cell-based
SK-HEP1 [31] = experiment: Induction of apoptosis in human SK-HEP1 cells assessed as increase in Bax expression at 1.5 to 13.5 uM incubated for 48 hrs by Western blotting analysis; type: functional, cell-based; conditions: dose 1.5-13.5 µM
SK-HEP1 [32] = experiment: Induction of apoptosis in human SK-HEP1 cells assessed as increase in proportion of early apoptosis at 1.5 to 13.5 uM incubated for 24 hrs by Annexin V-AbFluor 488/propidium iodide staining based flow cytometry analysis; type: functional, cell-based; conditions: dose 1.5-13.5 µM
Huh-7 [33] = experiment: Antitumor activity against human Huh-7 cells xenografted in BALB/c mouse assessed as tumor growth inhibition at 30 mg/kg, ip qd measured after 14 days; type: functional; conditions: Huh-7, 336 h, time 14 day, read-out: TGI
Huh-7 [34] = experiment: Induction of apoptosis in human Huh-7 cells assessed as inhibition of caspase-9 expression incubated for 48 hrs by Western blotting analysis; type: functional, cell-based; conditions: dose 0.9-8.1 µM
SK-HEP1 [35] = experiment: Induction of ROS production in human SK-HEP1 cells assessed as increase in intracellular ROS level at 1.5 to 13.5 uM incubated for 24 hrs by DCFH-DA staining based fluorescence assay; type: functional, cell-based; conditions: dose 1.5-13.5 µM
SK-HEP1 [36] = experiment: Induction of cell cycle arrest in human SK-HEP1 cells assessed as decrease in cyclin B1 expression incubated for 48 hrs by Western blotting analysis; type: functional, cell-based; conditions: dose 1.5-13.5 µM

CC(=O)Oc1ccccc1/C=C/c1nccc2ccccc12
Non-Toxic: Activity [8]
27.4%: inhibition in vivo at 15 mg/kg (Huh-7 [14])
41.4%: inhibition in vivo at 30 mg/kg (Huh-7 [33])
4.2 µM: IC50 (SK-HEP1 [9]; SK-HEP1, 72 h)
2.52 µM: IC50 (Huh-7 [30]; Huh-7, 72 h)
active: Activity (Huh-7 [1]) Dose-Dependent Effect | Activity (Huh-7 [2]) Dose-Dependent Effect | Activity (Huh-7 [3]) | inhibition (Huh-7 [4]) | Activity (Huh-7 [5]) | Activity (SK-HEP1 [6]) Dose-Dependent Effect | Activity (SK-HEP1 [7]) | Activity (SK-HEP1 [9]) Dose-Dependent Effect | inhibition (SK-HEP1 [10]) Dose-Dependent Effect | Activity (Huh-7 [11]) | Activity (SK-HEP1 [12]) | Activity (Huh-7 [13]) Dose-Dependent Effect | Activity (Huh-7 [15]) | Activity (SK-HEP1 [16]) | Activity (Huh-7 [17]) | Activity (SK-HEP1 [18]) Dose-Dependent Effect | Activity (SK-HEP1 [19]) | Activity [20] | Activity (Huh-7 [21]) Dose-Dependent Effect | inhibition (Huh-7 [22]) Dose-Dependent Effect | Activity (Huh-7 [23]) Dose-Dependent Effect | Activity (Huh-7 [24]) Tde | Activity (Huh-7 [25]) | Activity (Huh-7 [26]) Dose-Dependent Effect | Activity (SK-HEP1 [27]) Dose-Dependent Effect | Activity (Huh-7 [28]) | Activity (Huh-7 [29]) Dose-Dependent Effect | Activity (Huh-7 [30]) Dose-Dependent Effect | Activity (SK-HEP1 [31]) | Activity (SK-HEP1 [32]) | Activity (Huh-7 [34]) Dose-Dependent Effect | Activity (SK-HEP1 [35]) | Activity (SK-HEP1 [36]) Dose-Dependent Effect
